Test results published in PMC11354745, “Discovery of Novel Amino Acids (Analogues)-Substituted Thiophene[3,2-d]pyrimidine Derivatives as Potent HIV-1 Non-Nucleoside Reverse Transcriptase Inhibitors: Design, Synthesis, and Biological Evaluation” (International Journal of Molecular Sciences, 2024).
Read-outs that look alike come from different tables or passages of the source.

Key:
[1] = Cytotoxicity in mock-infected MT-4 cells (MTT method); format: cell-based; details: human
Experimental: (§1) The antiviral potential and cytotoxic effects of the target compounds were assessed using the MTT assay in MT-4 cells, following established protocols. The HIV-1 (IIIB) strain, single mutant strains (L100I, K103N, Y181C, Y188L and E138K), double mutant strains (F227L + V106A and K103N + Y181C) and MT-4 cells were provided by the Rega Institute of Medicine at the University of Leuven, Belgium. These viral strains were propagated in MT-4 cells. The MT-4 cells were cultured in RPMI-1640 medium supplemented with 20 mM HEPES buffer (Life Technologies, Grand Island, NY, USA), 10% (v/v) heat-inactivated fetal calf serum (FCS), 2 mM L-glutamine, 0.1% sodium bicarbonate, and 20 μg/mL gentamicin. Cultures were maintained at 37 °C in a 5% CO2 atmosphere. The specific experimental procedures are detailed below.
(§2) Initially, concentrated solutions of the test compounds were prepared at 10-fold the final desired concentration and added to triplicate wells in 25 µL aliquots to assess their impacts on both mock and HIV-infected MT-4 cells. Using a Biomek 3000 robot, these were diluted in a 96-well flat-bottomed microplate by mixing with medium, creating a series of 5-fold steps down in concentration. Each test included control groups of untreated infected and mock-infected cells to establish baselines for comparison. We introduced HIV-1 strains, both wild-type (IIIB) and drug-resistant variants harboring mutations L100I, K103N, Y181C, Y188L, E138K and F227L + V106A and the double mutant K103N + Y181C (RES056), at concentrations of 100–300 CCID50, into their respective wells. These strains served to mimic both typical and resistant infections. Additionally, mock-infected wells received an equal volume of culture medium to assess the compounds’ impacts on uninfected cells, thereby determining cytotoxicity. MT-4 cells in the exponential growth phase were pelleted by centrifugation at 1000 rpm for 5 min, after which the supernatant was removed. The cells were resuspended to a density of 6 × 10^5 cells/mL, and 50 µL of this suspension was added to each well. Post-infection, on the fifth day, cell viability in both mock and infected conditions was measured via the MTT assay using a spectrophotometer. The CC50 was identified as the concentration of the compound that caused a 50% reduction in the viability of the mock-infected cells, indicating cytotoxicity. Conversely, the EC50 represented the concentration that provided 50% protection against viral cytopathic effects in infected cells, signifying antiviral potency.

[2] = test system: HIV-1 wild-type (WT) strain (IIIB); test: Anti-HIV activity in MT-4 cells (MTT method), HIV-1 IIIB; format: cell-based; details: for EC50: Human immunodeficiency virus 1, IIIB, MT4, read-out: EC50 IIIB; for SI IIIB: selectivity index, ratio CC50/EC50, IIIB
Experimental: (§3) All the target compounds were first evaluated for their antiviral activity against HIV-1 wild-type (WT) strain (IIIB) and the double-mutant strain K103N+Y181C (RES056) in the MT-4 cell line, using the MTT method.
(§4) The antiviral potential and cytotoxic effects of the target compounds were assessed using the MTT assay in MT-4 cells, following established protocols. The HIV-1 (IIIB) strain, single mutant strains (L100I, K103N, Y181C, Y188L and E138K), double mutant strains (F227L + V106A and K103N + Y181C) and MT-4 cells were provided by the Rega Institute of Medicine at the University of Leuven, Belgium. These viral strains were propagated in MT-4 cells. […] The specific experimental procedures are detailed below.
as §2, with “We introduced HIV-1 strains, both wild-type (IIIB) and drug-resistant variants harboring mutations L100I, K103N, Y181C, Y188L, E138K and F227L + V106A and the double mutant K103N + Y181C (RES056), at concentrations of 100–300 CCID50, into their respective wells.” left out, “spectrophotometer.” for “spectrophotometer. The CC50 was identified as the concentration of the compound that caused a 50% reduction in the viability of the mock-infected cells, indicating cytotoxicity. Conversely, the EC50 represented the concentration that provided 50% protection against viral cytopathic effects in infected cells, signifying antiviral potency.”

[3] = test system: HIV-1 double-mutant strain K103N+Y181C (RES056); test: microbe, parasite or virus in culture; format: cell-based; details: for EC50: Human immunodeficiency virus 1, MT4, read-out: EC50 RES056; for SI RES056: selectivity index, ratio CC50/EC50, RES056
Experimental: as §3, §4
as §2, with “We introduced HIV-1 strains, both wild-type (IIIB) and drug-resistant variants harboring mutations L100I, K103N, Y181C, Y188L, E138K and F227L + V106A and the double mutant K103N + Y181C (RES056), at concentrations of 100–300 CCID50, into their respective wells.” left out, “spectrophotometer.” for “spectrophotometer. The CC50 was identified as the concentration of the compound that caused a 50% reduction in the viability of the mock-infected cells, indicating cytotoxicity. Conversely, the EC50 represented the concentration that provided 50% protection against viral cytopathic effects in infected cells, signifying antiviral potency.”

[4] = test system: HIV-1 E138K mutant strain; test: Anti-HIV activity in MT-4 cells (MTT method), E138K; format: cell-based; details: Human immunodeficiency virus 1, MT4, read-out: EC50 E138K
Description: (§5) All the target compounds were first evaluated for their antiviral activity against HIV-1 wild-type (WT) strain (IIIB) and the double-mutant strain K103N+Y181C (RES056) in the MT-4 cell line, using the MTT method. The potent inhibitors were selected to assess their efficacy against other strains resistant to NNRTIs, including L100I, K103N, Y181C, Y188L, E138K and the double-mutant strain F227L+V106A. The approved drugs NVP, EFV and ETR were selected as reference drugs. The biological evaluation results of the test compounds, presented as EC50 (anti-HIV potency), CC50 (cytotoxicity) and SI (selectivity index, CC50/EC50 ratio), are summarized in Table 1 and Table 2.
as §1, §2

[5] = test system: HIV-1 Y181C mutant strain; test: Anti-HIV activity in MT-4 cells (MTT method), Y181C; format: cell-based; details: Human immunodeficiency virus 1, MT4, read-out: EC50 Y181C
Description: as §5, §1, §2

[6] = test system: HIV-1 double-mutant strain F227L+V106A; test: Anti-HIV activity in MT-4 cells (MTT method), F227L+V106A; format: cell-based; details: Human immunodeficiency virus 1, MT4, read-out: EC50 F227L/V106A
Description: as §5, §1, §2

[7] = test system: HIV-1 K103N mutant strain; test: Anti-HIV activity in MT-4 cells (MTT method), K103N; format: cell-based; details: Human immunodeficiency virus 1, MT4, read-out: EC50 K103N
Description: as §5, §1, §2

[8] = test system: HIV-1 L100I mutant strain; test: Anti-HIV activity in MT-4 cells (MTT method), L100I; format: cell-based; details: Human immunodeficiency virus 1, MT4, read-out: EC50 L100I
Description: as §5, §1, §2

[9] = test system: HIV-1 Y188L mutant strain; test: Anti-HIV activity in MT-4 cells (MTT method), Y188L; format: cell-based; details: Human immunodeficiency virus 1, MT4, read-out: EC50 Y188L
Description: as §5, §1, §2

WT HIV-1 RT = target: T1, WT HIV-1 RT (Human immunodeficiency virus type 1 group M subtype B, UniProt P03366); test: HIV-1 RT inhibition assay (Roche kit, ELISA); format: biochemical
T1 construct: viral nucleotides (dNTPs) and the HIV-1 RT enzyme in an incubation buffer; purchased Roche
Description: An assay kit for HIV-1 reverse transcriptase (RT) from Roche was utilized to assess RT inhibition. The kit provided all necessary components for the RT reaction, and the enzyme-linked immunosorbent assay (ELISA) methodology for the inhibition assay was executed according to the kit’s instructions. […] Unbound dNTPs were washed away, and an anti-[…] (DIG)-POD working solution was introduced. […] Excess anti-DIG-POD was removed, and a peroxidase substrate (ABTS) solution was applied to the MTPs. […] The percentage of the inhibitory activity of the RT inhibitors was calculated by formula, as given below:
% Inhibition = [O.D. value with RT but without inhibitors − O.D. value with RT and inhibitors]/[O.D. value with RT […] − O.D. value without RT and inhibitors].

[10] = reduces viability of mock-infected MT-4 cell cultures by 50%, MTT method, read-out: CC50

Row | Structure (SMILES) | CC50 at 5 days ([1]; CC50) [nM] | melting point [°C] | EC50 [2] [nM] | SI IIIB [2] | EC50 [3] [nM] | SI RES056 [3] | EC50 [4] [nM] | EC50 [5] [nM] | EC50 [6] [nM] | EC50 [7] [nM] | EC50 [8] [nM] | EC50 [9] [nM] | IC50 (WT HIV-1 RT) [nM] | CC50 at 5 days [1, 10] [nM]
1 | Cc1cc(C#N)cc(C)c1Oc1nc(Nc2ccc(NC(=O)C(Cc3c[nH]c4ccccc34)NC(=O)OC(C)(C)C)cc2)nc2ccsc12 (stereo not drawn) [5a] | > 186000 | 205 to 208 | 940 ± 278 | >197 | > 186000 |  |  |  |  |  |  |  |  | 
2 | Cc1cc(C#N)cc(C)c1Oc1nc(Nc2ccc(NC(=O)C(N)Cc3c[nH]c4ccccc34)cc2)nc2ccsc12 (stereo not drawn) [5b] | 22400 ± 560 | 224 to 227 | 89 ± 43 | 250 | > 22400 | <1 |  |  |  |  |  |  |  | 
3 | Cc1cc(C#N)cc(C)c1Oc1nc(Nc2ccc(NC(=O)[C@H](Cc3cn(C(=O)OC(C)(C)C)cn3)NC(=O)OC(C)(C)C)cc2)nc2ccsc12 [5c] | 19600 ± 720 | 236 to 238 | 672 ± 648 | 29 | > 19600 | <1 |  |  |  |  |  |  |  | 
4 | Cc1cc(C#N)cc(C)c1Oc1nc(Nc2ccc(NC(=O)[C@H](Cc3ccccc3)NC(=O)OC(C)(C)C)cc2)nc2ccsc12 [5d] | > 197000 | 220 to 222 | 771 ± 236 | >256 | > 197000 |  |  |  |  |  |  |  |  | 
5 | Cc1cc(C#N)cc(C)c1Oc1nc(Nc2ccc(NC(=O)[C@@H](NC(=O)OC(C)(C)C)C(C)C)cc2)nc2ccsc12 [5f] | > 213000 | 158 to 160 | 848 ± 247 | >251 | > 213000 |  |  |  |  |  |  |  |  | 
6 | Cc1cc(C#N)cc(C)c1Oc1nc(Nc2ccc(NC(=O)C3CCCN3C(=O)OC(C)(C)C)cc2)nc2ccsc12 (stereo not drawn) [5g] | 191000 | 236 to 238 | 924 ± 242 | 206 | > 191000 | <1 |  |  |  |  |  |  |  | 
7 | CNCC(=O)Nc1ccc(Nc2nc(Oc3c(C)cc(C#N)cc3C)c3sccc3n2)cc1 [5j] | 17300 ± 11500 | 171 to 173 | 242 ± 65 | 72 | > 17300 | <1 |  |  |  |  |  |  |  | 
8 | Cc1cc(C#N)cc(C)c1Oc1nc(Nc2ccc(NC(=O)C3CC(O)CN3)cc2)nc2ccsc12 (stereo not drawn) [5l] | 26800 ± 1070 |  | 59 ± 10 | 451 | > 26800 | <1 | 314 ± 95 | 2600 ± 225 | 2190 ± 45 | 72 ± 18 | 1480 ± 545 | 2740 ± 103 | 1710 ± 298 | 
9 | Cc1cc(C#N)cc(C)c1Oc1nc(Nc2ccc(NC(=O)[C@@H](CC(C)C)NC(=O)OC(C)(C)C)cc2)nc2ccsc12 [5m] | > 208000 |  | 9860 ± 1180 | >21 | > 208000 |  |  |  |  |  |  |  |  | 
10 | Cc1cc(C#N)cc(C)c1Oc1nc(Nc2ccc(NC(=O)CN(C)C(=O)OC(C)(C)C)cc2)nc2ccsc12 [5o] | 5840 ± 1180 |  | 863 ± 253 | 7 |  |  |  |  |  |  |  |  |  | 
11 | Cc1cc(C#N)cc(C)c1Oc1nc(Nc2ccc(NC(=O)C3CC(O)CN3C(=O)OC(C)(C)C)cc2)nc2ccsc12 (stereo not drawn) [5p] | 22500 ± 391 |  | 2580 ± 520 | 9 |  |  |  |  |  |  |  |  |  | 
12 | O=C1Nc2ccc(Cl)cc2[C@@](C#CC2CC2)(C(F)(F)F)O1 [EFV, efavirenz, reference compound] |  |  | 6 ± 2 |  | 698 ± 449 |  | 10 ± 5 | 8 ± 1 | 329 ± 228 | 132 ± 50 | 54 ± 36 | 280 ± 91 |  | > 6350
13 | Cc1cc(C#N)cc(C)c1Oc1nc(Nc2ccc(C#N)cc2)nc(N)c1Br [ETR, etravirine, reference compound] | > 4610 |  | 3 ± 1 |  | 40 ± 11 |  | 9 ± 4 | 15 ± 5 | 9 ± 4 | 3 ± 1 |  | 21 ± 8 |  | 
14 | Cc1ccnc2c1NC(=O)c1cccnc1N2C1CC1 [NVP, nevirapine, reference compound] |  |  | 236 ± 114 |  | > 15000 |  | 181 ± 67 | 8040 ± 1680 | 7500 ± 2590 | 4090 ± 3710 | 1740 ± 879 | 9870 ± 2470 |  | > 15000
